23 compounds from US7495104B2, “Quinoline or quinazoline derivatives inhibiting auto-phosphorylation of fibroblast growth factor receptors” (Kirin Beer Kabushiki Kaisha, priority 2001, dated 2009) can be followed below.

Chain of Bek (P21802 431-767 limits assumed): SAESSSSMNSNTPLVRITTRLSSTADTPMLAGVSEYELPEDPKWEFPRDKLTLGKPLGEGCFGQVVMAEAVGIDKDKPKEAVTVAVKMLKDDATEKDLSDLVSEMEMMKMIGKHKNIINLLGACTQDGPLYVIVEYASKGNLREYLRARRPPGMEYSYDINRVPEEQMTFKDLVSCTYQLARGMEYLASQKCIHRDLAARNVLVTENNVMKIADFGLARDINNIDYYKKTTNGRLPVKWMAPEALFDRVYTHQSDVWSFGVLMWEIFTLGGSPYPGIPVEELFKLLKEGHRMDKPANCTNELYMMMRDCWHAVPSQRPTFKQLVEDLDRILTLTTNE

This test has as its target Bek (Homo sapiens, UniProt P21802). In words: Inhibitory activity against Bek-autophosphorylation using ELISA method in OCUM-2MD3 cells. As to conditions: 1 hr with compound, read-out: IC50 (concentration necessary for inhibiting 50% of Bek-phosphorylation). The format is cell-based. On the procedure: Human scirrhus stomach cancer cells OCUM-2MD3 (kindly provided by Dr. Kosei Hirakawa, Osaka City University) were cultured in an RPMI medium containing 10% fetal calf serum (purchased from ICN) within a 5% carbon dioxide incubator until 50 to 90% confluent. The harvested cells were seeded onto 96-well flat-bottom plate in RPMI containing 0.1% fetal calf serum at 3.5×10^4 cells per well, followed by cultivation at 37° C. overnight. A solution of the test compound in dimethyl sulfoxide was added to each well, and the cultivation was continued at 37° C. for additional one hr. The medium was removed, and 50 μl of lysis buffer (20 mM HEPES (pH 7.4), 150 mM NaCl, 0.2% Triton X-100, 10% glycerol, 5 mM sodium orthovanadylate, 5 mM disodium ethylenediaminetetraacetate, and 2 mM Na4P2O7) was then added thereto. The mixture was shaken at 4° C. for 2 hr to prepare cell extracts.
Separately, phosphate buffered saline (50 μl, pH 7.4) containing 5 μg/ml of anti-phospho-tyrosine antibody (PY20; purchased from Transduction Laboratories) was added to a microplate for ELISA (Maxisorp; purchased from NUNC), followed by standing at 4° C. overnight to form a solid phase on the wells. After washing of the plate, 300 μl of a blocking solution was added, followed by standing at room temperature for 2 hr to perform blocking. After washing, the whole quantity of the cell extracts was transferred to the wells, and the plate was then allowed to stand at 4° C. overnight. After washing, an anti-Bek antibody (Bek (C-17), purchased from Santa Cruz Biotechnology) or Anti-Human K-sam Rabbit IgG Affinity Purity (purchased from IBL Co., Ltd.) was allowed to react at room temperature for one hr, and, after washing, a peroxidase-labeled anti-rabbit Ig antibody (purchased from Amersham) was allowed to react at room temperature for one hr. After washing, a chromophoric substrate for peroxidase (purchased from Sumitomo Bakelite Co., Ltd.) was added thereto to initiate a reaction. After a suitable level of color development, a reaction termination solution was added to stop the reaction, and the absorbance at 450 nm was measured with a microplate reader. The Bek-phosphorylation activity for each well was determined by presuming the absorbance without the addition of the medicament to be 100% Bek-phosphorylation activity and the absorbance with the addition of a large excess of a positive control (N-{4-[(6,7-dimethoxy-4-quinolyl)oxy]phenyl}-N′-(3,3-dimethylbutyl)urea, 1000 nM) to be 0% Bek-phosphorylation activity. The concentration of the test compound was varied on several levels, the Bek-phosphorylation inhibitory activity was determined for each case, and the concentration of the test compound necessary for inhibiting 50% of Bek-phosphorylation (IC50) was calculated.
A general note: An ELISA detects its analyte on a solid surface through an enzyme-linked reagent.
For `COc1cc2c(Oc3ccc(NC(=O)NCCC(C)(C)C)cc3F)ccnc2cc1OCCCN1CCC(CO)CC1` [Compound 285, 1-(3,3-Dimethyl-butyl)-3-(3-fluoro-4-{7-[3-(4-hydroxymethyl-piperidin-1-yl)-propoxy]-6-methoxy-quinolin-4-yloxy}-phenyl)-urea], the IC50 is 22.8 nM. Under `COc1cc2c(Oc3ccc(Nc4ccc(C(C)(C)C)cc4)c(F)c3)ccnc2cc1OCCN1CCC(CO)CC1` [Compound 288, [1-(2-{4-[4-(4-Tert-butyl-phenylamino)-3-fluoro-phenoxy]-6-methoxy-quinolin-7-yloxy}-ethyl)-piperidin-4-yl]-methanol] stands 110 nM; under `COc1cc2c(Oc3ccc(NC(=O)NCCC(C)(C)C)c(F)c3)ccnc2cc1OCCN1CCC(O)CC1` [Compound 299, 1-(3,3-Dimethyl-butyl)-3-(2-fluoro-4-{7-[2-(4-hydroxy-piperidin-1-yl)-ethoxy]-6-methoxy-quinolin-4-yloxy}-phenyl)-urea], 27.4 nM; under `COc1cc2c(Oc3ccc(NC(=O)NCCC(C)(C)C)c(F)c3)ccnc2cc1OCCN1CCC(CO)CC1` [Compound 300, 1-(3,3-Dimethyl-butyl)-3-(2-fluoro-4-{7-[2-(4-hydroxymethyl-piperidin-1-yl)-ethoxy]-6-methoxy-quinolin-4-yloxy}-phenyl)-urea], 22.7 nM.

With `COc1cc2c(Oc3ccc(NC(=O)NCCC(C)(C)C)cc3)ccnc2cc1OCCNC1(CO)CCCC1` [Compound 359, 1-(3,3-Dimethyl-butyl)-3-(4-{7-[2-(1-hydroxymethyl-cyclopenthylamino)-ethoxy]-6-methoxy-quinolin-4-yloxy}-phenyl)-urea], the IC50 was found to be 254 nM. Under `COc1cc2nccc(Oc3ccc(Nc4ccc(OC(F)(F)F)cc4)cc3)c2cc1OC` [Compound 6, [4-(6,7-Dimethoxyquinolin-4-yloxy)phenyl]-(4-trifluoromethoxy-phenyl)amine] stands 875 nM; under `COc1cc2c(Oc3ccc(NC(=O)NCCC(C)(C)C)cc3Cl)ccnc2cc1OCCCN1CCC(CO)CC1` [Compound 339, 1-(3-Chloro-4-{7-[3-(4-hydroxymethyl-piperidin-1-yl)-propoxy]-6-methoxy-quinolin-4-yloxy}-phenyl)-3-(3,3-dimethyl-butyl)-urea], 16.4 nM; under `COc1cc2c(Oc3ccc(NC(=O)NCCC(C)(C)C)cc3)ccnc2cc1OCCN1CC(C)CC(C)C1` (centres unmarked) [Compound 120, 1-(3,3-Dimethyl-butyl)-3-(4-{7-[2-(3,5-dimethyl-piperidin-1-yl)-ethoxy]-6-methoxy-quinolin-4-yloxy}-phenyl)-urea], 21 nM.

`COc1cc2c(Oc3ccc(Nc4ccc(C(C)(C)C)cc4)cc3)ccnc2cc1OCC1CCCCN1C` (centres unmarked) [Compound 55, (4-Tert-butylphenyl)-{4-[6-methoxy-7-(1-methylpiperidin-2-ylmethoxy)quinolin-4-yloxy]phenyl}amine]: the IC50 amounted to 8000 nM. Under `COc1cc2c(Oc3ccc(NC(=O)NCCC(C)(C)C)cc3Cl)ccnc2cc1OCCCN1CCOCC1` [Compound 318, 1-{3-Chloro-4-[6-methoxy-7-(3-morpholin-4-yl-propoxy)-quinolin-4-yloxy]-phenyl}-3-(3,3-dimethyl-butyl)-urea] stands 18.7 nM.

As to `CCN(CC)CCCOc1cc2nccc(Oc3ccc(Nc4ccc(C(C)(C)C)cc4)cc3)c2cc1OC` [Compound 47, N1-[4-(Tert-butyl)phenyl]-4-({7-[3-(diethylamino)propoxy]-6-methoxy-4-quinolyl}oxy)aniline], the IC50 amounted to 243 nM. Regarding `COc1cc2nccc(Oc3ccc(Nc4ccc(OCc5ccccc5)cc4)cc3)c2cc1OC` [Compound 7, (4-Benzyloxyphenyl)-[4-(6,7-dimethoxyquinolin-4-yloxy)phenyl]-amine], the IC50 amounted to 1800 nM. Next, `COc1cc2c(Oc3ccc(NC(=O)NCCC(C)(C)C)cc3)ccnc2cc1OCCN1CCC(CO)CC1` [Compound 371, 1-(3,3-Dimethyl-butyl)-3-(4-{7-[2-(4-hydroxymethyl-piperidin-1-yl)-ethoxy]-6-methoxy-quinolin-4-yloxy}-phenyl)-urea]: under 10 nM. Under `COc1cc2c(Oc3ccc(Nc4ccc(C(C)(C)C)cc4)cc3)ccnc2cc1OCC(O)CN1CCCCCC1` (centres unmarked) [Compound 63, 1-Azepan-1-yl-3-{4-[4-(4-tert-butylphenylamino)phenoxy]-6-methoxyquinolin-7-yloxy}propan-2-ol] stands 247 nM. As to `COc1cc2c(Oc3ccc(Nc4ccc(C(C)(C)C)cc4)cc3)ccnc2cc1OCCCN1C[C@@H](C)O[C@@H](C)C1` [Compound 69, (4-Tert-butylphenyl)-(4-{7-[3-(2,6-dimethylmorpholin-4-yl)propoxy]-6-methoxyquinolin-4-yloxy}phenyl)amine], the IC50 is 248 nM.

Consider `COc1cc2c(Oc3ccc(NC(=O)NCCC(C)(C)C)c(Cl)c3)ccnc2cc1OCC(O)CN1CCCC1` (centres unmarked) [Compound 192, 1-{2-Chloro-4-[7-(2-hydroxy-3-pyrrolidin-1-yl-propoxy)-6-methoxy-quinolin-4-yloxy]-phenyl}-3-(3,3-dimethyl-butyl)-urea], for which the IC50 was 9.1 nM. Take `COc1cc2c(Oc3ccc(NC(=O)NCCC(C)(C)C)cc3)ccnc2cc1OCCCN1CCC(O)CC1` [Compound 96, 1-(3,3-Dimethyl-butyl)-3-(4-{7-[3-(4-hydroxy-piperidin-1-yl)-propoxy]-6-methoxy-quinolin-4-yloxy}-phenyl)-urea]: the IC50 was under 10 nM.

Turning to `COc1cc2c(Oc3ccc(Nc4ccc(C(C)(C)C)cc4)cc3)ccnc2cc1OCCCCN1CCN(C)CC1` [Compound 29, (4-Tert-butylphenyl)-(4-{6-methoxy-7-[4-(4-methylpiperazin-1-yl)butoxy]quinolin-4-yloxy}phenyl)amine], the IC50 was 931 nM. As to `COc1cc2nccc(Oc3ccc(Nc4ccc(C5CCCCC5)cc4)cc3)c2cc1OC` [Compound 10, (4-Cyclohexylphenyl)-[4-(6,7-dimethoxyquinolin-4-yloxy)phenyl]-amine], the IC50 was 631 nM. As for `COc1cc2c(Oc3ccc(NC(=O)NCCC(C)(C)C)c(Cl)c3)ccnc2cc1OCCCN1CC(C)OC(C)C1` (centres unmarked) [Compound 317, 1-(2-Chloro-4-{7-[3-(2,6-dimethyl-morpholin-4-yl)-propoxy]-6-methoxy-quinolin-4-yloxy}-phenyl)-3-(3,3-dimethyl-butyl)-urea], the IC50 worked out at 20.4 nM.

Turning to `COc1cc2c(Oc3ccc(NC(=O)NCCC(C)(C)C)cc3)ccnc2cc1OCCNC(C)CO` (centres unmarked) [Compound 361, 1-(3,3-Dimethyl-butyl)-3-(4-{7-[2-(2-hydroxy-1-methyl-ethylamino)-ethoxy]-6-methoxy-quinolin-4-yloxy}-phenyl)-urea], the IC50 is 29.8 nM.

Consider `COc1cc2nccc(Oc3ccc(NC(=O)NC(C)(C)CC(C)(C)C)c(Cl)c3)c2cc1OC` [Compound 144, 1-[2-Chloro-4-(6,7-dimethoxy-quinolin-4-yloxy)-phenyl]-3-(1,1,3,3-tetramethyl-butyl)-urea], for which the IC50 turned out to be 202 nM.

Regarding `COc1cc2c(Oc3ccc(NC(=O)NCCC(C)(C)C)cc3)ccnc2cc1OCCCN1CC(C)CC(C)C1` (centres unmarked) [Compound 245, 1-(3,3-Dimethyl-butyl)-3-(4-{7-[3-(3,5-dimethyl-piperidin-1-yl)-propoxy]-6-methoxy-quinolin-4-yloxy}-phenyl)-urea], the IC50 came out at 16.5 nM.
